Laboratory results as given in publication PMC7503370, “Cellular Signaling and Anti-Apoptotic Effects of Prolactin-Releasing Peptide and Its Analog on SH-SY5Y Cells” (International Journal of Molecular Sciences, 2020).
Numbered stars: 1 amine (or outer) side, 2 acyl side, 3 side chain; on linkers, the order of the positions; unused ones are H or OH. Side chains are listed from the residue outwards. Peptide text beside a SMILES is read from it. * marks the point of attachment. γGlu = O=C(O)[C@H](CCC(=O)[*:2])N[*:1]; Palmitoyl = CCCCCCCCCCCCCCCC(=O)*

Columns and labels:
Format in all cases: cell-based, human
[1] = system: p-c-Jun, p-ERK, p-Bad, Bax/Bcl-2 in SH-SY5Y cells; assay: Western blotting of anti-apoptotic signaling in MG-stressed cells; conditions: 4 h pretreatment 1 × 10^−5 M, then 0.6 mM MG 16 h, vs MG, triplicates; for decrease of the MG-increased level of p-Bad (Ser112)/Bad / decrease of the MG-increased level of p-Bad (Ser136)/Bad / decrease of the MG-increased level of p-c-Jun (Ser73)/c-Jun: normalized to GAPDH
Method: Figure 7 PrRP31 and palm^11-PrRP31 affected anti-apoptotic signaling in SH-SY5Y cells. Immunoblots: (a) and their quantifications: (b). SH-SY5Y cells were pretreated with PrRP31 and palm^11-PrRP31 at a concentration of 1 × 10^−5 M for 4 h and then stressed with 0.6 mM MG for 16 h. Activation was expressed as the ratio of the activated protein to the total amount of the protein, both normalized to loading control, GAPDH. Data are presented as the means ± SEM as a percentage of control cells treated with medium alone. Analysis is made vs. MG by a Student’s t-test, * p < 0.5, ** p < 0.01 (each sample in triplicates).
(§1) For the investigation of the molecular mechanism of PrRP31 and its analog in the cells, signaling pathways were studied by Western blotting (WB). The cells were cultured in 6-well plates at a density of 800,000 cells per well. Growth medium was exchanged for serum-free DMEM 16 h before an experiment, and then, the cells were incubated with PrRP31, palm^11-PrRP31, or scrambled peptide at a final concentration of 1 × 10^−5 M or insulin at a concentration of 1 × 10^−7 M at 37 °C for 8 min. The cells were rapidly cooled on ice and lysed in 400 µl of Laemmli sample buffer (62.5 mM Tris-HCl with pH 6.8, 2% SDS, 10% glycerol, 0.01% bromophenol blue, 5% mercaptoethanol, 50 mM NaF, and 1 mM Na3VO4) and stored at −20 °C. Afterward, the cell lysates were analyzed by WB. SDS-electrophoresis and WB were carried out using a Criterion system with a 26-well 4−15% Criterion^TM TGX^TM Precast Midi Protein Gel (Bio-Rad, Hercules, CA, USA) at a constant voltage of 200 V or 100 V, respectively.
(§2) Subsequently, the membranes were incubated overnight with primary antibody (Ab) at 4 °C, according to the manufacturer´s instructions (Table 2). The next day, the membranes were incubated with an HRP-linked secondary antibody for 1 h at room temperature. Chemiluminescence was visualized with a ChemiDoc^TM System (Bio-Rad). Band intensities were normalized using glyceraldehyde 3-phosphate dehydrogenase (GAPDH) as an internal loading control.
For analysis of the molecular mechanism during MG stress, the growth medium was exchanged for serum-free DMEM 16 h before the experiment. The cells were pretreated with 1 × 10^−5 M PrRP31 or palm^11-PrRP31 for 4 h; then, MG was added to a final concentration of 0.6 mM, and the cells were incubated at 37 °C for 16 h. The controls and compounds were tested in triplicate.

[2] = system: ERK-CREB signaling pathway in SH-SY5Y cells; assay: Western blotting of ERK-CREB signaling pathway after 8 min incubation; conditions: 1 × 10^−5 M, 37 °C, vs control cells (medium alone), normalized to GAPDH, n = 3, triplicates
Method: Figure 2 PrRP31 and palm^11-PrRP31 increased phosphorylation of extracellular signal-regulated kinase/cAMP response element-binding protein (ERK-CREB) signaling pathway in SH-SY5Y cells. Immunoblots: (a) and their quantifications: (b). SH-SY5Y cells were incubated either with PrRP31 and its palmitoylated analog and scrambled at a final concentration 1 × 10^−5 M, or with insulin at the final concentration 1 × 10^−7 M at 37 °C for 8 min, or medium alone. Activation was expressed as the ratio of the activated protein to the total amount of the protein, both normalized to loading control, GAPDH. Data are presented as the means ± SEM as a percentage of control cells treated with medium alone analyzed by one-way ANOVA followed by the Dunnett post hoc test, * p < 0.5, ** p < 0.01, **** p < 0.0001 (n = 3, each sample in triplicates).
as §1, §2
Eight minutes of incubation was performed in a series of experiments with different exposure times (5, 10, 15, 30, and 60 min) to PrRP31 and its palmitoylated analog. Activation of analogs was strongest after 10 min. Then, the cells were treated with inhibitors of signaling pathways for 2 min, and analogs were added for 8 min. […] Activation is expressed as the ratio of the activated protein to the total amount of the protein. […]

[3] = system: SH-SY5Y cells; assay: Treatment with peptides after 16 h exposure to MG, MTT cell viability; conditions: 1.2 mM MG 16 h, then 4 h treatment 1 × 10^−5 M, n = 3, octuplicates
Method: Treatment for 4 h with PrRP31 and palm^11-PrRP31 at a concentration of: (a) 1 × 10^−5 M; after exposure to 1.2 mM MG for 16 h in SH-SY5Y cells. Treatment for 4 h with PrRP31 and palm^11-PrRP31 at a concentration of: (b) 1 × 10^−5 M; (c) 1 × 10^−7 M, after exposure to 0.6 mM MG for 16 h in SH-SY5Y cells. MG toxicity measured with MTT assay. Data are presented as the means ± SEM as a percentage of control cells treated with vehicle analyzed by a Student´s t-test vs. 0.6 mM MG ## p < 0.01, ### p < 0.001, #### p < 0.0001 (n = 3, each sample in octuplicates). Control vs. 0.6 mM MG analyzed by a Student´s t-test, * p < 0.5, ** p < 0.01.
The MTT test was used to measure cell viability. The MTT reagent was dissolved in RPMI-1640 without phenol red. Cells were incubated for 2 h with a 10% solution of MTT at 37 °C. Living cells converted soluble MTT to insoluble formazan, which was subsequently dissolved in DMSO. The absorbance was measured at a wavelength of 560 nm.
For this assay, cells were cultured in 96-well plates at a density of 40,000 cells per well. The growth medium was exchanged for serum-free DMEM 16 h before the experiment. First, the cells were pretreated with 1 × 10^−5 M or 1 × 10^−7 M PrRP31 or palm^11-PrRP31 (in octuplicates) for 4 h to prevent MG cytotoxic effects; then, MG was added to a final concentration of 0.6 mM or 1.2 mM. The cells were incubated at 37 °C for 16 h. […]

CCCCCCCCCCCCCCCC(=O)N[C@@H](CCC(=O)NCCCC[C@H](NC(=O)[C@@H](NC(=O)[C@H](CCC(=O)O)NC(=O)[C@H](CCSC)NC(=O)[C@H](CO)NC(=O)[C@H](Cc1c[nH]cn1)NC(=O)[C@H](CCCNC(=N)N)NC(=O)[C@H](Cc1c[nH]cn1)NC(=O)[C@@H](NC(=O)[C@H](CCCNC(=N)N)NC(=O)[C@@H](N)CO)[C@@H](C)O)[C@@H](C)CC)C(=O)N[C@H](C(=O)N1CCC[C@H]1C(=O)N[C@@H](CC(=O)O)C(=O)N[C@H](C(=O)N[C@@H](CC(N)=O)C(=O)N1CCC[C@H]1C(=O)N[C@@H](C)C(=O)N[C@@H](Cc1c[nH]c2ccccc12)C(=O)N[C@@H](Cc1ccc(O)cc1)C(=O)N[C@@H](C)C(=O)N[C@@H](CO)C(=O)N[C@@H](CCCNC(=N)N)C(=O)NCC(=O)N[C@H](C(=O)N[C@@H](CCCNC(=N)N)C(=O)N1CCC[C@H]1C(=O)N[C@H](C(=O)NCC(=O)N[C@@H](CCCNC(=N)N)C(=O)N[C@@H](Cc1ccccc1)C(N)=O)C(C)C)[C@@H](C)CC)[C@@H](C)CC)[C@@H](C)O)C(=O)O [palm^11-PrRP31] (H-SRTHRHSMEIK([γGlu-Palmitoyl])TPDINPAWYASRGIRPVGRF-NH2; N-terminus assumed)
decrease of the MG-increased level of p-Bad (Ser112)/Bad [1]: 46% | decrease of the MG-increased level of p-Bad (Ser136)/Bad [1]: 52% | decrease of the MG-increased level of p-c-Jun (Ser73)/c-Jun [1]: 37% | attenuation of the MG-increased ratio of Bax/Bcl−2 [1]: 38% | increase of p-CREB (Ser133)/CREB [2]: 238% | increase of p-ERK (Thr 202/Tyr204)/ERK [2]: 74% | change of cell viability compared to cells administered with 1.2 mM MG [3]: nonsignificant increase

CC[C@H](C)[C@H](NC(=O)CNC(=O)[C@H](CCCNC(=N)N)NC(=O)[C@H](CO)NC(=O)[C@H](C)NC(=O)[C@H](Cc1ccc(O)cc1)NC(=O)[C@H](Cc1c[nH]c2ccccc12)NC(=O)[C@H](C)NC(=O)[C@@H]1CCCN1C(=O)[C@H](CC(N)=O)NC(=O)[C@@H](NC(=O)[C@H](CC(=O)O)NC(=O)[C@@H]1CCCN1C(=O)[C@@H](NC(=O)[C@H](CCCNC(=N)N)NC(=O)[C@@H](NC(=O)[C@H](CCC(=O)O)NC(=O)[C@H](CCSC)NC(=O)[C@H](CO)NC(=O)[C@H](Cc1c[nH]cn1)NC(=O)[C@H](CCCNC(=N)N)NC(=O)[C@H](Cc1c[nH]cn1)NC(=O)[C@@H](NC(=O)[C@H](CCCNC(=N)N)NC(=O)[C@@H](N)CO)[C@@H](C)O)[C@@H](C)CC)[C@@H](C)O)[C@@H](C)CC)C(=O)N[C@@H](CCCNC(=N)N)C(=O)N1CCC[C@H]1C(=O)N[C@H](C(=O)NCC(=O)N[C@@H](CCCNC(=N)N)C(=O)N[C@@H](Cc1ccccc1)C(N)=O)C(C)C [PrRP31]
decrease of the MG-increased level of p-Bad (Ser112)/Bad [1]: tended to decrease | decrease of the MG-increased level of p-Bad (Ser136)/Bad [1]: tended to decrease | decrease of the MG-increased level of p-c-Jun (Ser73)/c-Jun [1]: tended to decrease | increase of p-CREB (Ser133)/CREB [2]: 68% | increase of p-ERK (Thr 202/Tyr204)/ERK [2]: 36% | change of cell viability compared to cells administered with 1.2 mM MG [3]: nonsignificant increase
